ChEMBL document CHEMBL1201862, “PubChem BioAssay data set” (2004)
One block for each compound: values may come before it. The source made the active and inactive calls.

How the values were obtained:
[1] = target: T1, Interleukin-8 (Homo sapiens, UniProt P10145); assay: Dose Response confirmation of uHTS small molecule hits for cystic fibrosis induced NFkb Inhibitors in a PAF-induced IL8 counterscreen.; assay type: functional; details: read-out: IC50_Mean
T1 sequence (P10145 whole entry): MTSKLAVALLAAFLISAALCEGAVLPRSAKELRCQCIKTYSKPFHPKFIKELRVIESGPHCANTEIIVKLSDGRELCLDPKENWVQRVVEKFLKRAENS

[2] = target: T1, Interleukin-8; assay: Dose Response confirmation of uHTS small molecule hits for cystic fibrosis induced NFkb Inhibitors in a TNFa-induced IL8 counterscreen.; assay type: functional; details: read-out: IC50_Mean
[3] = target: T2, Heat shock factor protein 1 (Mus musculus, UniProt P38532); assay: decrease of HSF1-responsive luciferase luminescence – cell-based, NIH3T3, dose retest, confirmation (AID 2382); assay type: functional;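 note: NIH3T3 fibroblasts with HSF1-driven luciferase reporter stressed by proteasome inhibitor MG132; luminescence from HSF1-driven luciferase expression after 8 hours of MG132 stress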
T2 sequence (P38532 whole entry): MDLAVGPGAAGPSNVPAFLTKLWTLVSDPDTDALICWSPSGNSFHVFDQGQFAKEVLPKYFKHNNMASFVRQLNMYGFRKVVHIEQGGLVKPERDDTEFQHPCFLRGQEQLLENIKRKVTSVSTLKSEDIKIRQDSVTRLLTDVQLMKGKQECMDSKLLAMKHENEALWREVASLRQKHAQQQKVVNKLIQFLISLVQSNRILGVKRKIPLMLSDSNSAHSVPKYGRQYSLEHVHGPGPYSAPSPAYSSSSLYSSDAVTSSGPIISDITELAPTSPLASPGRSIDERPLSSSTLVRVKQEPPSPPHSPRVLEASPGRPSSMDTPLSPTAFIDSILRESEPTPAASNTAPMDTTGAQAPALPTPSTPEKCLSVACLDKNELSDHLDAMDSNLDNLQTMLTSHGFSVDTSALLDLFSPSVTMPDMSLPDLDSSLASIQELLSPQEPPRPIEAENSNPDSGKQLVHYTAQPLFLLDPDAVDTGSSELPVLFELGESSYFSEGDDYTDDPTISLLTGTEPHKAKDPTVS

[4] = target: T3, Corticotropin-releasing factor receptor 2/Corticotropin-releasing factor-binding protein (Homo sapiens, UniProt P24387+Q13324); assay: activators of CRF receptor 2 with binding protein – uHTS hits, confirmation (AID 602473); assay type: functional; details: read-out: EC50_Mean
T3 sequence (Q13324 whole entry): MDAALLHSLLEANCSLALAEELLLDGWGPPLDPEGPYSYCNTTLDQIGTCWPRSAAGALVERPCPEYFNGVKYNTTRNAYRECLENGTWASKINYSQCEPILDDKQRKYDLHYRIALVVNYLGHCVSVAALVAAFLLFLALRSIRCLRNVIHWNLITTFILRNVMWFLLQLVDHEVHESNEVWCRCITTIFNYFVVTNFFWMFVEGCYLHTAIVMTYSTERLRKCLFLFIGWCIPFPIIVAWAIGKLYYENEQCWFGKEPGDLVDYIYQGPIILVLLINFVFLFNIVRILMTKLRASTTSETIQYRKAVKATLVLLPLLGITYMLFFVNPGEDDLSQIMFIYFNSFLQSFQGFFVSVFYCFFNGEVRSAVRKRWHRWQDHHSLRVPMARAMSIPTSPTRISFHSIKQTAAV
T3 sequence (P24387 whole entry): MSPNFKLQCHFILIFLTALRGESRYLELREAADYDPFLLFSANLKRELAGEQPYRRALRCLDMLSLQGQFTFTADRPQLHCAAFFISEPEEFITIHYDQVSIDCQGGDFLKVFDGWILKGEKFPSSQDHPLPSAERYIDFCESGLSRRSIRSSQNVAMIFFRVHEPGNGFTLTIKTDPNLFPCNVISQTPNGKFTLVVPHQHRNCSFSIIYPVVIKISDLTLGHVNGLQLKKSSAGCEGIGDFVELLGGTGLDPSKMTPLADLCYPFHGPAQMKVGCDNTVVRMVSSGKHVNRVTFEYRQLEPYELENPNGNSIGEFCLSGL

[5] = target: T3, Corticotropin-releasing factor receptor 2/Corticotropin-releasing factor-binding protein; assay: Dose Response confirmation of uHTS hits for small molecule antagonists of the CRF-binding protein and CRF-R2 receptor complex.; assay type: functional; details: read-out: IC50_Mean
[6] = blockers of CRF-binding protein–CRF-R2 complex – cell-based, uHTS hits, 384-well, dose response (AID 651639); assay type: functional, Homo sapiens; details: read-out: IC50_Mean
[7] = target: Matrix metalloproteinase-14 (Homo sapiens, UniProt P50281); assay: Dose Response confirmation of uHTS hits for a small molecule inhibitors of MT1-MMP activation in a fluorescence assay set 1.; assay type: functional
[8] = target: T4, Protein skinhead-1 (Caenorhabditis elegans, UniProt P34707); assay type: functional
T4 sequence (P34707 whole entry): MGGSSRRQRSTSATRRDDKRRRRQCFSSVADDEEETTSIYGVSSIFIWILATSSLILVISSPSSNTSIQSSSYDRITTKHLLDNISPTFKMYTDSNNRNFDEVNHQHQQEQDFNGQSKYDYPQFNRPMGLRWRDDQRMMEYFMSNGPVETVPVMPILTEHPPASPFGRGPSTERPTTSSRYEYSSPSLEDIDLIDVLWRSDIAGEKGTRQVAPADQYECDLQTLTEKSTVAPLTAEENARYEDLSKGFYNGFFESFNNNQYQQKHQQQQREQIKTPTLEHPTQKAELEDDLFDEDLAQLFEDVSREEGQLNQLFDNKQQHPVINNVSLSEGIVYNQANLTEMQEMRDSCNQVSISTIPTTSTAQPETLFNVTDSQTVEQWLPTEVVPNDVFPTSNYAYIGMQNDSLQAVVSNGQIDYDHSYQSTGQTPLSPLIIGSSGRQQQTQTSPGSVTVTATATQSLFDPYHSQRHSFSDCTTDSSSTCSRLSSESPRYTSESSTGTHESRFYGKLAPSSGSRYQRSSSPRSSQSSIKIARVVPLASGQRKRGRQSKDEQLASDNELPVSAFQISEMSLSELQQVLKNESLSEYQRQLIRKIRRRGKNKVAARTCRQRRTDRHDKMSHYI

[9] = activation of miR-122 Renilla sensor silencing – cell-based, Huh7 psiCHECK-miR122, Renilla luciferase, cherry-picked, dose response (AID 651956); assay type: functional;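 note: huh7 hepatoma cells stably carrying a psiCHECK-2 miR-122 sensor plasmid; renilla luciferase signal reporting endogenous miR-122 activity after 48 h compound exposure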
[10] = target: SWI/SNF-related matrix-associated actin-dependent regulator of chromatin subfamily A member 2 (Homo sapiens, UniProt P51531); assay: Luminescence-based cell-based high throughput dose response assay to identify activators of the function of SWI/SNF related, matrix associated, actin dependent regulator of chromatin, subfamily a, member 2 (SMARCA2, BRM).; assay type: functional
[11] = Counterscreen for activators of the function of SWI/SNF related, matrix associated, actin dependent regulator of chromatin, subfamily a, member 2 (SMARCA2, BRM): Luminescence-based cell-based high throughput dose response assay to identify non-selective compounds using the VP16 reporter assay.; assay type: functional
[12] = target: T5, Probable nicotinate-nucleotide adenylyltransferase (Staphylococcus aureus (strain N315), UniProt P65502); assay type: functional, Staphylococcus aureus subsp. aureus N315; details: read-out: IC50_Mean;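 for IC50 Mean: confirmatory dose-response retesting of NadD inhibitor hits first found in an ultra-high-throughput screen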
[13] = target: T5, Probable nicotinate-nucleotide adenylyltransferase; assay type: functional, Staphylococcus aureus subsp. aureus N315
[14] = target: T6, Small ubiquitin-related modifier 1 (Homo sapiens, UniProt P63165); assay: SUMO1 protein-protein binding blockers, potency – biochemical, FRET, dose response (AID 624383); assay type: functional; details: read-out: IC50_Mean
[15] = target: T6, Small ubiquitin-related modifier 1; assay: SUMO1 protein interaction blockers, potency – biochemical, fluorescence polarization, uHTS hits, dose response (AID 624382); assay type: functional; details: read-out: IC50_Mean
[16] = target: T7, Carboxy-terminal domain RNA polymerase II polypeptide A small phosphatase 1 (Homo sapiens, UniProt Q9GZU7); assay: CTDSP1 inhibitors, concentration-response, biochemical, absorbance readout, ultra-high-throughput screen actives (AID 540297); assay type: functional
T7 sequence (Q9GZU7 whole entry): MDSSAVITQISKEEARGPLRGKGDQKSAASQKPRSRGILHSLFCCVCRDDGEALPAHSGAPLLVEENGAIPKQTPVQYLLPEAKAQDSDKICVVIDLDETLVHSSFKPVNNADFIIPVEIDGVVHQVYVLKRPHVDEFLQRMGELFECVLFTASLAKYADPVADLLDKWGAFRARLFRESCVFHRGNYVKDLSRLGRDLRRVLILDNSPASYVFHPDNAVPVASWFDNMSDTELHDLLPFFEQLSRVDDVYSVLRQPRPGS

[17] = target: T8, Low molecular weight phosphotyrosine protein phosphatase (Homo sapiens, UniProt P24666); assay type: functional; details: read-out: IC50_Mean;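 note: Dose-response confirmation assay measuring inhibition of LMPTP enzyme activity by fluorescence intensity read-out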
T8 sequence (P24666 whole entry): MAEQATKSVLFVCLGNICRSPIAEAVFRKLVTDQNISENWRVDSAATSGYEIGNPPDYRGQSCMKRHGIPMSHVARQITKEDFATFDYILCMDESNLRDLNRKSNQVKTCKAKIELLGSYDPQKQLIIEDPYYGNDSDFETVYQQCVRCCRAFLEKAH

[18] = Counterscreen for inhibitors of Trypanosoma brucei methionyl tRNA synthetase (MetRS): Luminescence-based cell-based high throughput dose response assay to identify compounds that are cytotoxic to Jurkat human T lymphocyte cells.; assay type: functional
[19] = target: T9, Methionyl-tRNA synthetase, putative (Trypanosoma brucei brucei, UniProt Q38C91); assay type: functional, Trypanosoma brucei brucei strain 927/4 GUTat10.1
T9 sequence (Q38C91 whole entry): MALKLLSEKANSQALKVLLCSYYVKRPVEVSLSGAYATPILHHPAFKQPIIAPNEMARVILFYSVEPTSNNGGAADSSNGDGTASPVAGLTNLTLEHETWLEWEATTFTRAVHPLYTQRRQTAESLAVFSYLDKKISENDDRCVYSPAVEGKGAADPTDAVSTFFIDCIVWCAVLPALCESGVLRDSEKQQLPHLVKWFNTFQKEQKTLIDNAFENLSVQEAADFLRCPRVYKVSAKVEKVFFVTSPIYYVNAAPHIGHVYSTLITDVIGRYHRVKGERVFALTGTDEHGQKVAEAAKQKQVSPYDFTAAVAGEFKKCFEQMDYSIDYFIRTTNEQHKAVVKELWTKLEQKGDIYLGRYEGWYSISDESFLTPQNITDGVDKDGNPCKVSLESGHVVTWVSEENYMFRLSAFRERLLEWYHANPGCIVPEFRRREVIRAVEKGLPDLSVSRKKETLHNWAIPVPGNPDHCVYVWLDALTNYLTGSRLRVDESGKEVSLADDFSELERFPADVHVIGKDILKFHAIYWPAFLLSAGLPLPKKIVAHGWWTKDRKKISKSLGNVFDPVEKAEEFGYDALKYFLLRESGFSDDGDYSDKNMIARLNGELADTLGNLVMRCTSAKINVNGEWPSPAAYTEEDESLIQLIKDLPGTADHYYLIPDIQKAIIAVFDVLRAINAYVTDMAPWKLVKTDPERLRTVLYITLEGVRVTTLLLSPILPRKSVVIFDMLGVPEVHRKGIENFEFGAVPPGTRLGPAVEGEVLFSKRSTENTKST

[20] = target: T9, Methionyl-tRNA synthetase, putative; assay type: functional, Trypanosoma brucei brucei strain 927/4 GUTat10.1; remark: listed apart in the source
[21] = inhibition of ARNT PAS-B/TACC3 complex formation – biochemical, AlphaScreen, cherry-picked samples, confirmation (AID 651703); assay type: functional, Homo sapiens;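 note: His-tagged ARNT PAS-B domain paired with GST-TACC3 E629A dimer coactivator fragment; potency of inhibitors that break up the complex and lower AlphaScreen signal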

T6 sequence (P63165 whole entry): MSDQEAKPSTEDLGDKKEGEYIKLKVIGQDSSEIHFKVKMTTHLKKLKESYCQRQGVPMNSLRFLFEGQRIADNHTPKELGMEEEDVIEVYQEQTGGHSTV
Chain of SWI/SNF-related matrix-associated actin-dependent regulator of chromatin subfamily A member 2 (P51531 whole entry): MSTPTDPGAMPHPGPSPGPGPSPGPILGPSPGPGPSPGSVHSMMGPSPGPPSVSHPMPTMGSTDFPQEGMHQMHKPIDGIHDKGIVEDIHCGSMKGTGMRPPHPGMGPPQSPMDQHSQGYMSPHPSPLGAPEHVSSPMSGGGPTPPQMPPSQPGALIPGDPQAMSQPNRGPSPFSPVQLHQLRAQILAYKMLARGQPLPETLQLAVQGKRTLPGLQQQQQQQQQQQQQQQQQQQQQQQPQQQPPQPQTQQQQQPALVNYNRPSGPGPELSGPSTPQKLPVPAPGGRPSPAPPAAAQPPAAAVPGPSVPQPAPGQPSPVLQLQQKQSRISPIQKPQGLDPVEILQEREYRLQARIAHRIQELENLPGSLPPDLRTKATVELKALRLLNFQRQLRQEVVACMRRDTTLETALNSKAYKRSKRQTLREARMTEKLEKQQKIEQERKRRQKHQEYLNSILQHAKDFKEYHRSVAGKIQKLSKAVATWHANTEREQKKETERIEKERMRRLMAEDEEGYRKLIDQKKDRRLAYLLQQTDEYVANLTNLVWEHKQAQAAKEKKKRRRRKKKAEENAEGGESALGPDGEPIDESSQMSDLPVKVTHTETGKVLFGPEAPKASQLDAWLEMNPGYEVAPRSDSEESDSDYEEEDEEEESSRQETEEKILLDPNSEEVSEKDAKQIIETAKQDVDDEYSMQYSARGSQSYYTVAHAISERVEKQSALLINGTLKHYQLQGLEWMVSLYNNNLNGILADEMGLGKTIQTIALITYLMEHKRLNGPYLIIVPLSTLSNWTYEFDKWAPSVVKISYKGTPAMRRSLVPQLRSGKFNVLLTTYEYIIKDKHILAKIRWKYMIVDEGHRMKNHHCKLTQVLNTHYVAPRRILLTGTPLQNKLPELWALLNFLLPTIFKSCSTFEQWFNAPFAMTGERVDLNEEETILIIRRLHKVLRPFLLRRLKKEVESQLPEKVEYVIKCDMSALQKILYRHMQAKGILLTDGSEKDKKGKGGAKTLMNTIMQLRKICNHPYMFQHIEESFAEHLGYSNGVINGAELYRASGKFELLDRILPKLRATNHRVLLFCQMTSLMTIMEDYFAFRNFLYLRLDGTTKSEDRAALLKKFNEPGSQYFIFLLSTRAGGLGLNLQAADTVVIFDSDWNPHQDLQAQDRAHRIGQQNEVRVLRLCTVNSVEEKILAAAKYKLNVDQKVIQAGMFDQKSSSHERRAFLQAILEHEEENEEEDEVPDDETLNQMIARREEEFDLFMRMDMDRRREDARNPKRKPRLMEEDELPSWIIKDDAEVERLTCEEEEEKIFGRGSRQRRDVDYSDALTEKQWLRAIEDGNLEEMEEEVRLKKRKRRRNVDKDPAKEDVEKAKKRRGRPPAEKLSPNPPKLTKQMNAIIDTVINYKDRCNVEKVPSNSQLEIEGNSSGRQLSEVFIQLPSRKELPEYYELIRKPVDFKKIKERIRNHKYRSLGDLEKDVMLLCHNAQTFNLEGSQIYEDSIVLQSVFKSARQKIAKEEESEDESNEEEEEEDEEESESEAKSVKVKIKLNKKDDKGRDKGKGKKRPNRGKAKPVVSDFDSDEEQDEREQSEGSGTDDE

IC50 [1]: 4.72 µM (active) | IC50 [2]: 39.9 µM (inactive) | EC50 [3]: 2.79 µM (active)
SMILES: CCN1CCN(Cc2ccc(NC(=O)c3ccc(C)c(NC(=O)c4cccc5[nH]ccc45)c3)cc2C(F)(F)F)CC1

SMILES: COCCCn1c(-c2ccc(OC)cc2)cc(C(=O)NC2CCCCCCC2)c1C
EC50 [4]: > 53 µM (inactive) | IC50 [5]: 3.95 µM (active) | IC50 [6]: 11.5 µM (active)

IC50 [7]: 46.5 µM (inactive) | IC50 [8]: > 100 µM (inactive)
SMILES: O=C(NNc1c2ccccc2nc2ccccc12)c1ccc(Cl)cc1

SMILES: c1ccc(-n2nnnc2NCCc2c[nH]c3ccccc23)cc1
AC50 [9]: 9.93 µM (active)

SMILES: CCc1c(C)c2ccc(OC3CCCCC3=O)cc2oc1=O (stereo not drawn)
EC50 [10]: > 91.2 µM (inactive) | EC50 [11]: > 91.2 µM (inactive)

IC50 [12]: 52.2 µM (active) | IC50 [13]: 13.7 µM (active)
SMILES: O=C(CN1c2ccccc2Sc2ccccc21)NNC(=S)Nc1ccc(Cl)cc1Cl

SMILES: COC(=O)c1ccc(C(=O)Nc2ccc3c(c2)C(=O)NC3=O)cc1
IC50 [14]: 5.19 µM (active) | IC50 [15]: > 66.6 µM (inactive) | IC50 [16]: 6.87 µM (active)

SMILES: O=C(Nc1ccc2oc(-c3ccncc3)nc2c1)c1ccc2c(c1)OCO2
IC50 [14]: 7.12 µM (active) | IC50 [15]: > 66.6 µM (inactive) | IC50 [17]: 7.98 µM (active)

EC50 [4]: > 53 µM (inactive) | IC50 [5]: 33.8 µM (active) | IC50 [6]: > 20 µM (inactive)
SMILES: Cc1noc(C)c1COC(=O)Cc1ccc(Cl)c(Cl)c1

SMILES: O=C(CSc1nc2ccccc2[nH]1)Nc1nc(-c2ccc(Br)cc2)cs1
IC50 [18]: 55.6 µM (inactive) | IC50 [19]: 90.6 µM (inactive) | IC50 [20]: 85.4 µM (inactive)

SMILES: CCN(CC)C(=O)CSc1nnc(-c2ccccn2)n1-c1ccc(C)c(C)c1
AC50 [21]: 92.4 µM (active)

IC50 [12]: 23.8 µM (active) | IC50 [13]: 5.34 µM (active)
SMILES: CCOc1ccc(C(=O)N/N=C/c2ccc(-c3ccc(S(=O)(=O)Nc4ncccn4)cc3)o2)cc1
